Reference: patent US8071654B2, “Inhibitors of thromboxane formation and action” (priority 2000, dated 2011)

Target: T1, COX-2 (Homo sapiens, UniProt P35354)
T1 construct: purchased Cayman Chemicals
T1 sequence (P35354 18-604): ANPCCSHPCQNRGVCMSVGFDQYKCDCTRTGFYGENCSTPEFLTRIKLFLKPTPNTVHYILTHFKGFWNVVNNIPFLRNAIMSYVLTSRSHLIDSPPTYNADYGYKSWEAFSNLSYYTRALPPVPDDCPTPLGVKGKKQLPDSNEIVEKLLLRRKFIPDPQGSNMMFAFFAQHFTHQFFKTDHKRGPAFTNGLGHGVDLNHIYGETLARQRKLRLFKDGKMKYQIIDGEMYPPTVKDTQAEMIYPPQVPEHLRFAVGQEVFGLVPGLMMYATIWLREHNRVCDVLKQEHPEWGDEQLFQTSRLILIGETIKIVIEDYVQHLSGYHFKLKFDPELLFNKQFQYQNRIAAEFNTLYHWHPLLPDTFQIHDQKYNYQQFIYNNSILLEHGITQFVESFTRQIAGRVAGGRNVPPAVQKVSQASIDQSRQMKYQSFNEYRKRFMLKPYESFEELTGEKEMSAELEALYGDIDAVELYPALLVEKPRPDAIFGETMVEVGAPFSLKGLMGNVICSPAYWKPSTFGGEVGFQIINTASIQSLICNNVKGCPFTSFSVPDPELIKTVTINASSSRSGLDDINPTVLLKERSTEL
Test: COX-2 activity, 14C-arachidonic acid conversion, TLC
Type: biochemical
Conditions: for COX-2 enzyme activity (% of control values, mean ± SD): n = 3
Protocol: COX-1 and COX-2 enzyme preparations were purchased from Cayman Chemicals. Preliminary studies established that 40 U of COX-1 or COX-2 could convert about 70% of ^14C-arachidonic acid (spec. act. 55 mCi/mmol, Ontario Isotopes, Ontario, Canada; 100,000 cpm were diluted with 0.5 μg unlabeled arachidonic acid (Cayman Chemicals)/1 ml assay) into products in vitro. Different amounts of PBT-3 (10 μg and 20 μg) were added and the conversion of AA into products was assessed during a 10 min reaction in 1 ml phosphate buffer at 37°. After extraction, products were assessed by TLC (silica gel G, ethyl acetate/acetic acid, 99/1, v/v). After development, the TLC plates were scanned for radioactive products with a Berthold TLC radiochromatogram scanner and the radioactivity was quantified by scraping zones of silica gel, placing in scintillation vials, elution with 1 ml methanol and addition of scintillation medium. Radioactivity was determined by conventional counting in a beta scintillation counter.

COX-2 enzyme activity (% of control values, mean ± SD) (PBT-3 3.00 μM): 109.2 ± 8.0^NS % of control
COX-2 enzyme activity (% of control values, mean ± SD) (PBT-3 30.0 μM): 107.1 ± 14^NS % of control
SMILES: CCCCC/C=C\CC1CC1[C@@H](O)/C=C\C/C=C\CCCC(=O)OC (stereo partly drawn) [PBT-3, 10(S)-hydroxy-11,12-cyclopropyl-eicosa-5Z,8Z,14Z-trienoic acid methyl ester]
inhibition of COX-2, in words (relatively large amounts of PBT-3, about 3-4 log doses greater than required to inhibit the TP receptor): Neither COX-1, COX-2,12-LOX nor Plase A2 was inhibited
